# Source: US20120015907A1, “Furopyridine compounds and uses thereof” (NOVARTIS AG, priority 2010, published 2012)
# Key:
# HCV polymerase = target: T1, HCV polymerase (Hepatitis C virus genotype 1b, UniProt Q9WMX2); test: biochemical; details: polymerase assay of Biological Example 1; read-out: NS5B polymerase IC50
# T1 construct: (His)6 (C)
# [1] = tested on: HCV replicon I389luc-ubi-neo/NS3-3'/ET in ET (Huh-lucubineo-ET) cells; test: Replicon assay (Biological Example 2), luciferase read-out; type: cell-based; details: Hepatitis C virus, luciferase activity 48 hours after compound addition
# Method in brief: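 ET cells stably carry the replicon with adaptive mutations E1202G, […] and K1846T. Compound is added 24 h after plating at 0.1 nM–50 μM final (10-point, 3-fold dilutions) with 0.5% DMSO, and luciferase is read 48 h later. EC50 comes from a Hill-equation fit of % inhibition versus no-compound control.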
SMILES,IC50 (HCV polymerase) [nM],IC50 [1] [nM]
"CNC(=O)c1c(-c2ccc(C)cc2)oc2nc(N(CCCCC(=O)O)S(C)(=O)=O)c(C3CC3)cc12 [Example 25.1, 5-(N-(5-cyclopropyl-3-(methylcarbamoyl)-2-p-tolylfuro[2,3-b]pyridin-6-yl)methylsulfonamido)pentanoic acid]",2,≤ 100
"CCc1cc2c(C(=O)NC)c(-c3ccc(F)cc3)oc2nc1N(CCCCC(C)=O)S(C)(=O)=O [Example 22.92, 5-ethyl-2-(4-fluorophenyl)-N-methyl-6-(N-(5-oxohexyl)methylsulfonamido)furo[2,3-b]pyridine-3-carboxamide]",32,≤ 100
"CCc1cc2c(C(=O)NC)c(-c3ccc(F)cc3)oc2nc1N(CCCCN1CCC[C@H]1C(=O)O)S(C)(=O)=O [Example 23.98, (S)-1-(4-(N-(5-ethyl-2-(4-fluorophenyl)-3-(methylcarbamoyl)furo[2,3-b]pyridin-6-yl)methylsulfonamido)butyl) pyrrolidine-2-carboxylic acid]",166,≥ 5000
"CNC(=O)c1c(-c2ccc(F)cc2)oc2nc(N(C)S(C)(=O)=O)c(CCCCS(=O)(=O)CCC(=O)O)cc12 [Example 4.91, 3-(4-(2-(4-fluorophenyl)-3-(methylcarbamoyl)-6-(N-methylmethylsulfonamido)furo[2,3-b]pyridin-5-yl)butylsulfonyl)propanoic acid]",10,≥ 5000
"CNC(=O)c1c(-c2ccc(F)cc2)oc2nc(N(C)S(C)(=O)=O)c(C#CCCC(=O)O)cc12 [Example 5, 5-(2-(4-fluorophenyl)-3-(methylcarbamoyl)-6-(N-methylmethylsulfonamido)furo[2,3-b]pyridin-5-yl)pent-4-ynoic acid]",256,≥ 5000
"CNC(=O)c1c(-c2ccc(F)cc2)oc2nc(N(CCCC3CCCS3(=O)=O)S(C)(=O)=O)c(I)cc12 (stereo not drawn) [Example 18.97, 6-{[3-(1,1-Dioxo-tetrahydrothiophen-2-yl)-propyl]-methanesulfonyl-amino}-2-(4-fluoro-phenyl)-5-iodo-furo[2,3-b]pyridine-3-carboxylic acid methylamide]",32,≤ 100
"CNC(=O)c1c(-c2ccc(C3CC3)cc2)oc2nc(N(CCCCS(C)(=O)=O)S(C)(=O)=O)c(C3CC3)cc12 [Example 25.9, 5-cyclopropyl-2-(4-cyclopropylphenyl)-N-methyl-6-(N-(4-(methylsulfonyl)butyl)methylsulfonamido)furo[2,3-b]pyridine-3-carboxamide]",3,≤ 100
"CNC(=O)c1c(-c2ccc(Oc3ccccc3)cc2)oc2nc(N(C)S(C)(=O)=O)c(C3CC3)cc12 [Example 16, 5-cyclopropyl-N-methyl-6-(N-methylmethylsulfonamido)-2-(4-phenoxyphenyl)furo[2,3-b]pyridine-3-carboxamide]",3,≤ 100
"CNC(=O)c1c(-c2ccc(C)cc2)oc2nc(N(CCCS(C)(=O)=O)S(C)(=O)=O)c(C3CC3)cc12 [Example 25.3, 5-cyclopropyl-N-methyl-6-(N-(3-(methylsulfonyl)propyl)methylsulfonamido)-2-p-tolylfuro[2,3-b]pyridine-3-carboxamide]",1,≤ 100
"CNC(=O)c1c(-c2ccc(F)cc2)oc2nc(N(C)S(C)(=O)=O)c(CCCCC(=O)N3CCC[C@H]3C(=O)O)cc12 [Example 4.7, (S)-1-(5-(2-(4-fluorophenyl)-3-(methylcarbamoyl)-6-(N-methylmethylsulfonamido)furo[2,3-b]pyridin-5-yl)pentanoyl)pyrrolidine-2-carboxylic acid]",51,≥ 5000
"CCc1cc2c(C(=O)NC)c(-c3ccc(F)cc3)oc2nc1N(C)S(C)(=O)=O [Example 6, 5-Ethyl-2-(4-fluoro-phenyl)-6-(methanesulfonyl-methyl-amino)-furo[2,3-b]pyridine-3-carboxylic acid methylamide]",20,≤ 100
CNC(=O)c1c(-c2ccc(F)cc2)oc2nc(N(CCCC3CCCS3(=O)=O)S(C)(=O)=O)c(C3CC3)cc12 (racemic) [Example 24.4],9,≤ 100
"CCc1cc2c(C(=O)NC)c(-c3ccc(F)cc3)oc2nc1N(Cc1cccc(C#N)c1)S(C)(=O)=O [Example 21.99, 6-(N-(3-cyanobenzyl)methylsulfonamido)-5-ethyl-2-(4-fluorophenyl)-N-methylfuro[2,3-b]pyridine-3-carboxamide]",4540,≥ 5000
"CNC(=O)c1c(-c2ccc(Cl)cc2)oc2nc(N(CCCC3CCCS3(=O)=O)S(C)(=O)=O)c(I)cc12 (stereo not drawn) [Example 18.98, 2-(4-Chloro-phenyl)-6-{[3-(1,1-dioxo-tetrahydrothiophen-2-yl)-propyl]-methanesulfonyl-amino}-5-iodo-furo[2,3-b]pyridine-3-carobxylic acid methylamide]",4,≤ 100
"CCc1cc2c(C(=O)NC)c(-c3ccc(F)cc3)oc2nc1N(CCCS(=O)(=O)c1ccccc1)S(C)(=O)=O [Example 21.97, 5-ethyl-2-(4-fluorophenyl)-N-methyl-6-(N-(3-(phenylsulfonyl)propyl)methylsulfonamido)furo[2,3-b]pyridine-3-carboxamide]",3,≤ 100
"CNC(=O)c1c(-c2ccc(Cl)cc2)oc2nc(N(CCCCC(=O)O)S(C)(=O)=O)c(C3CC3)cc12 [Example 27.5, 5-(N-(2-(4-chlorophenyl)-5-cyclopropyl-3-(methylcarbamoyl)furo[2,3-b]pyridin-6-yl)methylsulfonamido) pentanoic acid]",1,≤ 100
"CCc1cc2c(C(=O)NC)c(-c3ccc(F)cc3)oc2nc1N(CCCN1CCCCS1(=O)=O)S(C)(=O)=O [Example 23.7, 6-{[3-(1,1-Dioxo-[1,2]thiazinan-2-yl)-propyl]-methanesulfonyl-amino}-5-ethyl-2-(4-fluorophenyl)-furo[2,3-b]pyridine-3-carboxylic acid methylamide]",5,≤ 100
"CCOC(=O)CCCCN(c1nc2oc(-c3ccc(Cl)cc3)c(C(=O)NC)c2cc1C1CC1)S(C)(=O)=O [Example 26.3, ethyl 5-(N-(2-(4-chlorophenyl)-5-cyclopropyl-3-(methylcarbamoyl)furo[2,3-b]pyridin-6-yl)methylsulfonamido) pentanoate]",3,≤ 100
"CNC(=O)c1c(-c2ccc(F)cc2)oc2nc(N(CCCCS(C)(=O)=O)S(C)(=O)=O)c(C3CC3)cc12 [Example 25.7, 5-cyclopropyl-2-(4-fluorophenyl)-N-methyl-6-(N-(4-(methylsulfonyl)butyl)methylsulfonamido)furo[2,3-b]pyridine-3-carboxamide]",1,≤ 100
"CNC(=O)c1c(-c2ccc(F)cc2)oc2nc(N(C)S(C)(=O)=O)c(C(C)(O)CO)cc12 (stereo not drawn) [Example 9, 5-(1,2-dihydroxypropan-2-yl)-2-(4-fluorophenyl)-N-methyl-6-(N-methylmethylsulfonamido)furo[2,3-b]pyridine-3-carboxamide]",2320,≥ 5000
"C=CCCN(CCCN(c1nc2oc(-c3ccc(F)cc3)c(C(=O)NC)c2cc1I)S(C)(=O)=O)S(C)(=O)=O [Example 23.994, 6-(N-(3-(N-(but-3-enyl)methylsulfonamido)propyl)methylsulfonamido)-2-(4-fluorophenyl)-5-iodo-N-methylfuro[2,3-b]pyridine-3-carboxamide]",57,≤ 100
"CNC(=O)c1c(-c2ccc(F)cc2)oc2nc(N(CCC(C)O)S(C)(=O)=O)c(C3CC3)cc12 (stereo not drawn) [Example 26.5, 5-cyclopropyl-2-(4-fluorophenyl)-6-(N-(3-hydroxybutyl)methylsulfonamido)-N-methylfuro[2,3-b]pyridine-3-carboxamide]",10,≤ 100
CNC(=O)c1c(-c2ccc(Cl)cc2F)oc2nc(N(C)S(C)(=O)=O)c(C3CC3)cc12 [Example 2.97],4,≤ 100
"CNC(=O)c1c(-c2ccc(F)cc2)oc2nc3c(cc12)C(C)C(O)CCN3S(C)(=O)=O (stereo not drawn) [Example 31, 2-(4-Fluoro-phenyl)-6-hydroxy-9-methanesulfonyl-5-methyl-6,7,8,9-tetrahydro-5H-1-oxa-9,10-diaza-cyclohepta[f]indene-3-carboxylic acid methylamide]",35,≤ 100
